Drawing on US20080200535A1, “Amine Compounds” (Asahi Kasei Pharma Corporation, priority 2006, published 2008), this text covers EC50 for 62 compounds.

In the experiment the target is T1, S1P1 receptor (Homo sapiens, UniProt P21453).
T1 construct: expressed in transfected cells; membrane preparation
Put plainly: 35S-GTPγS binding assay using membrane preparation of CHO cell stably expressing S1P1 receptor. The class given is biochemical. Particulars: agonist activity. On the procedure: ^35s-GTPγS binding assay using membrane preparation of CHO cell stably expressing S1P1 receptor
A G protein-GTPγS binding test associated with a ligand was performed by using a membrane preparation which was obtained from a CHO cell which stably overexpressed S1P1 receptor. In a 96 well-micro-titer dish, the produced membrane protein and a compound which was diluted with a solvent such as DMSO or sphingosine-1-phosphate in various concentrations was incubated in a solution containing 20 mM of Tris-Cl (pH7.5), 100 mM of NaCl, 10 mM of MgCl2, 5μM of GDP, 0.1% of BSA, and […] of ^35s-GTPγS (specific radioactivity, 1250 Ci mmol). The binding was performed for 1 or more hours at room temperature, and the membrane was harvested on a GF/B filter plate by using a Millipore's MultiScreen Separation System to end the binding. After the filter plate was dried for 30 or more minutes, 25 μL of MicroScint-20 was added to each well, and the binding was measured by using the TopCount.
For the agonist activity of compound, the value of a well which a solvent was added to was set to a control value and compared with an increment of an evaluation compound-added well, so that the increment of each concentration of the compound was obtained. EC50 value was calculated under the definition that the value is an agonist concentration required to provide 50% of the maximum increment thereof. […]
(In general: GTPγS is a poorly hydrolysed GTP analogue; its binding reports G protein activation.)

Molecules are shown by their SMILES. pEC50: −log10 of the molar value.

T1 sequence (P21453 whole entry): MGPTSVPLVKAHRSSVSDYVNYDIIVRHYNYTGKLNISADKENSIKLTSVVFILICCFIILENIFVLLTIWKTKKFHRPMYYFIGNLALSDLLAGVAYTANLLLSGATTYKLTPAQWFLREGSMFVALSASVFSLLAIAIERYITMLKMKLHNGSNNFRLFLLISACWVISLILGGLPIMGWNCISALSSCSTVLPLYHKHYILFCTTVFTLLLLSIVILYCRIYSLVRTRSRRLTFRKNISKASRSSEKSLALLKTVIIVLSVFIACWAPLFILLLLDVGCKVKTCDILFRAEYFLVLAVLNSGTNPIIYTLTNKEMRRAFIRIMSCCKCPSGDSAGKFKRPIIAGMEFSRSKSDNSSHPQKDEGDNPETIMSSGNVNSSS

A word on the pEC50: it is the EC50 on a negative log10 scale, so that one unit is a factor of ten. Read a low pEC50 as a large EC50. On to `O=C(O)C1CCC(NCc2ccc(OCc3cc(-c4ccccc4)c(C(F)(F)F)s3)cc2)CC1` (centres unmarked) [Example 9], for which the pEC50 is 6.79. Compound `O=C(O)[C@H]1CC[C@@H](NCc2ccc(OCc3cc(-c4ccccc4)c(C(F)(F)F)s3)cc2)CC1` [Example 13] showed a pEC50 of 6.63. For `O=C(O)[C@@H]1C[C@@H](O)[C@H](NCc2ccc(OCc3cc(-c4ccccc4)c(C(F)(F)F)s3)cc2)C1` [Example 15], the pEC50 was 6.92. For `O=C(O)[C@@H]1C[C@H](O)[C@H](NCc2ccc(OCc3cc(-c4ccccc4)c(C(F)(F)F)s3)cc2)C1` [Example 16] the value was 7.03; for `O=C(O)[C@H]1CC[C@@H](NCc2ccc(OCc3cc(-c4ccccc4)c(C(F)(F)F)s3)cc2)C1` [Example 18], 6.60; for `O=C(O)[C@@H]1C[C@H](NCc2ccc(OCc3cc(-c4ccccc4)c(C(F)(F)F)s3)cc2)CN1` [Example 22], 6.57. For `O=C(O)[C@@H]1CC=C[C@@H](NCc2ccc(OCc3cc(-c4ccccc4)c(C(F)(F)F)s3)cc2)C1` [Example 24] the value was 7.06; for `O=C(O)C(CO)NCc1ccc(OCc2cc(-c3ccccc3)c(C(F)(F)F)s2)cc1` (centres unmarked) [Example 27], 6.43. For `O=C(O)[C@@H]1CC[C@H](NCc2ccc3cnn(Cc4ccc(-c5ccccc5)cc4)c3c2)C1` [Example 35, (1R,3s)-3-N-({1-(4-phenylbenzyl)-1H-indazol-6-yl)methyl}aminocyclopentane carboxylic acid] the value was 6.80. In turn, `O=C(O)CCNCc1ccc(OCc2ccc3c(cnn3Cc3ccccc3)c2)cc1` [Example 37, 3-(4-(1-benzyl-1H-indazol-5-yl)methoxy)benzylaminopropanoic acid] gave a negative-log EC50 (pEC50) of 7.19. For `O=C(O)CCNCc1ccc(-c2noc(-c3ccc(-c4ncccc4C(F)(F)F)cc3)n2)cc1` [Example 41] the value was 7.60; for `CC(C)/C=C/CCCCc1nc(-c2ccc(CNCCC(=O)O)cc2)no1` [Example 43], 7.34. To `O=C(O)CCNCc1ccc(-c2noc(-c3cnc(OC4CCCC4)c(Cl)c3)n2)cc1` [Example 44] belongs 7.89; to `O=C(O)CCNCc1ccc(-c2noc(-c3ccc(OC4CCCCC4)c(C(F)(F)F)c3)n2)cc1` [Example 45], 8.80. To `O=C(O)CCNCc1ccc(-c2noc(-c3ccc(-c4ccccc4)cc3)n2)cc1` [Example 48] belongs 8.52; to `CC(C)Oc1ccc(-c2nc(-c3ccc(CNCCC(=O)O)cc3)no2)cc1C(F)(F)F` [Example 49], 9.22; to `O=C(O)CCNCc1ccc(-c2noc(-c3ccc(-c4ccccn4)cc3)n2)cc1` [Example 50], 7.38. For the compound `Cc1cc(-c2ccccc2)ccc1-c1nc(-c2ccc(CNCCC(=O)O)cc2)no1` [Example 55], the pEC50 is 7.47. On to `O=C(O)CCNCc1ccc(-c2noc(-c3ccc(-c4ccc(C(F)(F)F)cc4)cc3)n2)cc1` [Example 57], for which the negative logarithm of the EC50 (pEC50) was 7.16.

With `Cc1cc(-c2ccccc2F)ccc1-c1nc(-c2ccc(CNCCC(=O)O)cc2)no1` [Example 58], the pEC50 is 7.25. To `O=C(O)CCNCc1ccc(-c2noc(-c3ccc(-c4ccccc4C(F)(F)F)cc3)n2)cc1` [Example 62] belongs 9.40. For `O=C(O)CCNCc1ccc(-c2noc(-c3ccc(-c4ccccc4F)cc3)n2)cc1` [Example 67] the value was 9.10; for `O=C(O)CCNCc1ccc(-c2noc(-c3ccc(-c4cccc(F)c4)cc3)n2)cc1` [Example 68], 8.26. To `O=C(O)CCNCc1ccc(-c2noc(-c3ccc(-c4ccc(F)cc4)cc3)n2)cc1` [Example 69] belongs 7.85; to `Cc1cc(-c2nc(-c3ccc(CNCCC(=O)O)cc3)no2)ccc1-c1cccc(F)c1` [Example 74], 9.92. `Cc1cc(-c2nc(-c3ccc(CNCCC(=O)O)cc3)no2)ccc1-c1ccc(F)cc1` [Example 75] showed a pEC50 of 9.47. In the case of `Cc1cc(-c2nc(-c3ccc(CNCCC(=O)O)cc3)no2)ccc1-c1cccc(C(F)(F)F)c1` [Example 76], the pEC50 was 9.46. Compound `Cc1cc(-c2nc(-c3ccc(CNCCC(=O)O)cc3)no2)ccc1-c1ccc(C(F)(F)F)cc1` [Example 77] had a pEC50 of 7.89. To `CC(C)Sc1ccc(-c2nc(-c3ccc(CNCCC(=O)O)cc3)no2)cc1` [Example 83] belongs 7.96; to `Cc1cc(-c2nc(-c3ccc(CNCCC(=O)O)cc3)no2)ccc1-c1ccccc1C(F)(F)F` [Example 86], 9.51.

Turning to `N#Cc1ccccc1-c1ccc(-c2nc(-c3ccc(CNCCC(=O)O)cc3)no2)c(F)c1` [Example 88], the negative logarithm of the EC50 (pEC50) is 8.00. For `N#Cc1cc(-c2nc(-c3ccc(CNCCC(=O)O)cc3)no2)ccc1-c1ccccc1F` [Example 89] the value was 9.77. For `Cc1cc(-c2nc(-c3ccc(CNCCC(=O)O)cc3)no2)ccc1C1CCCC1` [Example 91] the value was 9.60. For `Cc1cc(-c2nc(-c3ccc(CNCCC(=O)O)cc3)no2)ccc1C1CCCCC1` [Example 92] the value was 9.70. `O=C(O)CCNCc1ccc(-c2noc(-c3ccc(-c4ccccc4)cn3)n2)cc1` [Example 95] gave a negative-log EC50 (pEC50) of 7.60.

`O=C(O)CCNCc1ccc(-c2noc(-c3ccc(-c4ccccc4F)c(C(F)(F)F)c3)n2)cc1` [Example 98] gave a negative-log EC50 (pEC50) of 9.43. Regarding `O=C(O)CCNCc1ccc(-c2noc(-c3ccc(-c4ccccc4C(F)(F)F)c(C(F)(F)F)c3)n2)cc1` [Example 99], the negative logarithm of the EC50 (pEC50) is 8.89.

In the case of `O=C(O)CCNCc1ccc(-c2noc(-c3ccc(-c4ccccc4OC(F)(F)F)c(C(F)(F)F)c3)n2)cc1` [Example 100], the pEC50 was 8.77. To `CCc1cc(-c2nc(-c3ccc(CNCCC(=O)O)cc3)no2)ccc1-c1ccccc1` [Example 101] belongs 9.39; to `CCc1cc(-c2nc(-c3ccc(CNCCC(=O)O)cc3)no2)ccc1-c1ccccc1C#N` [Example 102], 9.39; to `O=C(O)CCNCc1ccc(-c2noc(-c3ccc(/C=C/C(F)(F)F)cc3)n2)cc1` [Example 103], 8.41. For `CCc1cc(-c2nc(-c3ccc(CNCCC(=O)O)cc3)no2)ccc1-c1ccccc1F` [Example 108] the value was 9.54; for `Cc1ccccc1-c1ccc(-c2nc(-c3ccc(CNCCC(=O)O)cc3)no2)cc1C` [Example 110], 9.46. To `Cc1cc(-c2nc(-c3ccc(CNCCC(=O)O)cc3)no2)ccc1-c1ccccc1Cl` [Example 111] belongs 9.77. `Cc1cc(-c2nc(-c3ccc(CNCCC(=O)O)cc3)no2)ccc1-c1cccs1` [Example 112]: the pEC50 is 9.47. The compound `Cc1cc(-c2nc(-c3ccc(CNCCC(=O)O)cc3)no2)ccc1-c1ccsc1` [Example 113] showed a pEC50 of 10.15. To `Cc1cc(-c2nc(-c3ccc(CNCCC(=O)O)cc3)no2)ccc1-c1ccccc1OC(F)(F)F` [Example 114] belongs 9.72; to `Cc1cc(-c2nc(-c3ccc(CNCCC(=O)O)cc3)no2)ccc1-c1cscc1C` [Example 115], 10.40; to `Cc1cc(-c2nc(-c3ccc(CNCCC(=O)O)cc3)no2)ccc1-c1ccco1` [Example 116], 8.82. For `Cc1cc(-c2nc(-c3ccc(CNCCC(=O)O)cc3)no2)ccc1-c1ccccc1C(C)C` [Example 118] the value was 9.35. For `O=C(O)CCNCc1ccc(-c2noc(-c3ccc(-c4ccccc4F)s3)n2)cc1` [Example 120] the value was 8.44. `O=C(O)CCNCc1ccc(-c2noc(-c3cc(-c4ccccc4)c(C(F)(F)F)s3)n2)s1` [Example 124] had a negative logarithm of the EC50 (pEC50) of 9.70. `CC(C)Cc1ccc(-c2nc(-c3ccc(CNCCC(=O)O)s3)no2)cc1` [Example 128] gave a pEC50 of 7.80.

Compound `O=C(O)[C@H]1C[C@H](NCc2ccc(-c3noc(-c4cc(-c5ccccc5)c(C(F)(F)F)s4)n3)cc2)C1` [Example 130] gave a pEC50 of 8.35.

As for `Cc1cc(-c2nc(-c3ccc(CN[C@H]4C[C@H](C(=O)O)C4)cc3)no2)ccc1-c1ccccc1` [Example 134], the negative-log EC50 (pEC50) is 8.92. `CC(C)COc1ccc(-c2nc(-c3ccc(CN[C@H]4C[C@H](C(=O)O)C4)cc3)no2)cc1C(F)(F)F` [Example 136] had a pEC50 of 8.40. For `O=C(O)[C@@H]1CC[C@@H](NCc2ccc(-c3noc(-c4cc(-c5ccccc5)c(C(F)(F)F)s4)n3)cc2)C1` [Example 138] the value was 7.68; for `CC(C)Cc1ccc(-c2nc(-c3ccc(CN[C@@H]4CC[C@@H](C(=O)O)C4)cc3)no2)cc1` [Example 139], 7.64.

For `Cc1cc(-c2nc(-c3ccc(CN[C@@H]4CC[C@@H](C(=O)O)C4)cc3)no2)ccc1-c1ccccc1` [Example 142], the pEC50 was 8.17. To `Cc1cc(CNCCC(=O)O)ccc1-c1noc(-c2ccc(CC(C)C)cc2)n1` [Example 144] belongs 9.57. To `Cc1cc(CN[C@H]2C[C@H](C(=O)O)C2)ccc1-c1noc(-c2ccc(CC(C)C)cc2)n1` [Example 146, (1R,3R)-3-(4-(5-(4-isobutylphenyl)-1,2,4,-oxadiazol-3-yl)-3-methylbenzylamino)cyclobutanecarboxylic acid] belongs 8.35.

`O=C(O)CCNCc1ccc(OCc2cc(-c3ccccc3)c(C(F)(F)F)s2)cc1Cl` [Example 149] had a negative-log EC50 (pEC50) of 8.35.
